Laboratory results reported in patent US8476414B2, “Substrates and internal standards for mass spectrometry detection” (PerkinElmer Health Sciences, Inc., priority 2006, dated 2013).

Tests used:
[1] = molecular target: T1, acid α-galactosidase A (GLA) (Homo sapiens, UniProt P06280); assay: Dried blood spot enzyme assay with Fabry substrate, tandem mass spectrometry detection of the enzymatic product; format: biochemical; details: with dried blood sample, 15 to 24 hours at 37° Celsius, sodium acetate pH 4.6
T1 construct: from tissue
T1 sequence (P06280 32-429): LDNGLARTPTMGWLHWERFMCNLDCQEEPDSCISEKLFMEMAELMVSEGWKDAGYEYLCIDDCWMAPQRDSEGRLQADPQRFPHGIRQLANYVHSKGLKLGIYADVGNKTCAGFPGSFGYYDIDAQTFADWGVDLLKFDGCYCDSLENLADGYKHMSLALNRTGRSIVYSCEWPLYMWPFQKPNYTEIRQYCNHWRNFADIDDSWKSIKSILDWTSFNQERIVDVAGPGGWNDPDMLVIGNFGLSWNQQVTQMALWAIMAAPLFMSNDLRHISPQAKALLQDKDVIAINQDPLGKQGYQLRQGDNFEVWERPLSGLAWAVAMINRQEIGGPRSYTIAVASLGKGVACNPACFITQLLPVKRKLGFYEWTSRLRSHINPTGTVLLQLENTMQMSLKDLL
Description: (§1) For each sample, a disk of 3 mm diameter is punched from the areas of dried blood on a filter paper into a micro-centrifuge tube or a well of a 96-well microtiter plate. The blood disk is then incubated directly with an assay solution containing a substrate directed to the Fabry disease. The assay solution is prepared by mixing a 10 mM solution of substrate (4-(Hexadecanoyl-DL-carnitineamido)phenyl-α-D-galactopyranoside), a 1 mM solution of the internal standard for the enzymatic product (4-(Hexadecanoyl-DL-carnitine[C16-d3]amido)phenol), a 1 M solution of Acetylgalactosamine, and a 0.4 M solution of sodium acetate pH 4.6 buffer in a 8:1:3:38 ratio. The assay mixture containing the blood disk is incubated for 15 to 24 hours at 37° Celsius with orbital shaking (150 rpm) in a thermostatic air shaker. After the incubation period, an aliquot of pure methanol (without the use of chloroform) is added to each tube or well to terminate the enzymatic reaction. Before going into the mass spectrometer, an aliquot of the incubated aliquot is diluted in pure methanol. For the mass spectrometry analysis, the electrospray source is operated in positive mode, and the ions are detected in the parent ion of 176 scan mode. The amount of enzymatic product is calculated from the ion abundance ratio of the product to the internal standard minus that of a blank.

[2] = Non-enzymatic hydrolysis of substrate in blank sample not containing blood, processed as the dried blood spots; format: physicochemical; details: blank without blood, same assay solution and processing
Description: as §1, with “After the incubation period, an aliquot of pure methanol (without the use of chloroform) is added to each tube or well to terminate the enzymatic reaction. Before going into the mass spectrometer, an aliquot of the incubated aliquot is diluted in pure methanol.” left out
The […] chain for this particular example was chosen to contain 10 carbons and thus decanoyl-carnitine was used in the synthesis of the substrate. […] The final sample solutions were analyzed on a Waters Quattro Micro ESI-triple quadrupole tandem mass spectrometer using a parent ion of 176 scan. […]

[3] = test system: acid α-glucosidase (GAA); assay: Dried blood spot enzyme assay with Pompe substrate, tandem mass spectrometry detection of the enzymatic product; format: biochemical, human; details: pH 3.98
Description: An enzymatic reaction using a substrate directed to Pompe disease and the mass spectrometry analysis thereafter is carried out using the method specified in Example 1 with the following exceptions that sodium citrate was used as buffer. The assay solution for Example 2 was prepared by mixing a buffer solution (0.2 M sodium citrate/sodium phosphate, pH 3.98), a solution of 8 mM Acarbose, a solution of 10 mM substrate (4-Decanoyl-DL-carnitineamido)phenyl-α-D-glucopyranoside), and a solution of 1.0 mM internal standard (4-Decanoyl-DL-carnitine[C10-d3]amido)phenol) in a 93:1:4:2 ratio. The rest of the procedure is as indicated in Example 1.
In addition a blank filter paper sample not containing blood was processed following the same procedure as the dried blood spots. The same assay solution containing buffers, substrates, inhibitors and internal standards was used for all three samples. Therefore, all samples received the same concentration of reagents. The final sample solutions were analyzed on a Waters Quattro Micro ESI-triple quadrupole tandem mass spectrometer using a parent ion of 176 scan. The predominant peaks shown in the spectra are those corresponding to the intact substrate, internal standard and corresponding enzymatic product. […]

| SMILES | enzymatic product of the substrate detected by MS/MS [1] | non-enzymatic substrate hydrolysis (product found in blank) [2] | conversion of substrate to product (abundance of product relative to internal standard) ([3]; dried blood spot of confirmed Pompe positive newborn) | conversion of substrate to product (abundance of product relative to internal standard) ([3]; dried blood spot of healthy newborn) |
| --- | --- | --- | --- | --- |
| CCCCCCCCCCCCCCCC(=O)OC(CC(=O)Nc1ccc(O[C@H]2O[C@H](CO)[C@H](O)[C@H](O)[C@H]2O)cc1)C[N+](C)(C)C (mixture of isomers) [substrate directed to Fabry disease, 4-(Hexadecanoyl-DL-carnitineamido)phenyl-α-D-galactopyranoside] | significant amount | minimal amount |  |  |
| CCCCCCCCCC(=O)OC(CC(=O)Nc1ccc(O[C@H]2O[C@H](CO)[C@@H](O)[C@H](O)[C@H]2O)cc1)C[N+](C)(C)C (mixture of isomers) [substrate directed to Pompe disease, 4-(Decanoyl-DL-carnitineamido)phenyl-α-D-glucopyranoside] |  | negligible | no noticeable substrate to product conversion | highly noticeable |
